Data published in patent publication US20110003711A1 (CHROMOCELL CORPORATION, priority 2008, published 2011).
Counter-ions that a name gives are not always drawn. Like-named read-outs stand apart in the source and are kept apart here.

Legend:
[1] = target: T1, GABAA receptor α1β3γ2s (α1) (Homo sapiens, UniProt P14867+P18507+P28472); test: Membrane potential assay, CHO cell line expressing GABAA α1β3γ2s; type: cell-based
T1 construct: Human GABAA receptor alpha 1 subunit amino acid; Human GABAA receptor beta 3 variant 1 subunit amino acid; Human GABAA receptor gamma 2 variant 1 (short) subunit amino acid; expressed in transfected cells
T1 sequence (P14867 28-456): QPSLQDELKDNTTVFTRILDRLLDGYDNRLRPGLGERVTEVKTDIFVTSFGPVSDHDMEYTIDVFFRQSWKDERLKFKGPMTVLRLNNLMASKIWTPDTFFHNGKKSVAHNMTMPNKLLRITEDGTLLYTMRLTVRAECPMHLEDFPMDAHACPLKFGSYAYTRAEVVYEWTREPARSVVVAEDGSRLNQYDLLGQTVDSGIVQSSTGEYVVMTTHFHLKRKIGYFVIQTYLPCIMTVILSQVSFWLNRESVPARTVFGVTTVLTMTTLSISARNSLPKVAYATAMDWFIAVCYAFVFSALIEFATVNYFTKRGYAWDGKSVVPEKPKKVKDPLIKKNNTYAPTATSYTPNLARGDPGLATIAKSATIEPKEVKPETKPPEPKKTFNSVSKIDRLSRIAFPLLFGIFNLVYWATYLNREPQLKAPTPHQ
T1 sequence (P28472 26-473): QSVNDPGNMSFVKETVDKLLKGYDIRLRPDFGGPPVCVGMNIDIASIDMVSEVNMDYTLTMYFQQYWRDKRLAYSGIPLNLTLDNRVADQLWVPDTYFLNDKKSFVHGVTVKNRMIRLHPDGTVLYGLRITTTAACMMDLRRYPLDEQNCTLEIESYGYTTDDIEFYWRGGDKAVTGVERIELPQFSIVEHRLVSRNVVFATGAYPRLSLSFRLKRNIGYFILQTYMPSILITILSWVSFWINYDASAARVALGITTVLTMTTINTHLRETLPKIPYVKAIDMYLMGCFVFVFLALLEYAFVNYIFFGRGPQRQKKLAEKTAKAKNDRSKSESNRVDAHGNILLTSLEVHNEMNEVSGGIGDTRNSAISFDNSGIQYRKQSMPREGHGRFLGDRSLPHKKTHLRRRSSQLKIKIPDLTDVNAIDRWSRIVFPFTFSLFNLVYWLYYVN
T1 sequence (P18507 40-467 isoform P18507-1 limits assumed): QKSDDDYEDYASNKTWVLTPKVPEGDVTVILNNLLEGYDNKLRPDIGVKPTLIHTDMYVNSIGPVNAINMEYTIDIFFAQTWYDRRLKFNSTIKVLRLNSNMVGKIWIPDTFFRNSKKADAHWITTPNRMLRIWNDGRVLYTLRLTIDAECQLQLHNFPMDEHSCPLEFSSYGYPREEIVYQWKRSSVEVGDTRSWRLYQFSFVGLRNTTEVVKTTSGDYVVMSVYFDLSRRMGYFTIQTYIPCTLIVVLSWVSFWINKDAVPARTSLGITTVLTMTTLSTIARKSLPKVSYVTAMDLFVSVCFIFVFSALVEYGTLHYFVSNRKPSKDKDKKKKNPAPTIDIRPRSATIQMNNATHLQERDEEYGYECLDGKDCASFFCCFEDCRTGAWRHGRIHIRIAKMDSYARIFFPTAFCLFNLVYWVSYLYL
Protocol: (§1) As will be appreciated by those of skill in the art, any reagent that is suitable for use with a chosen host cell may be used to introduce a nucleic acid, e.g. plasmid, oligonucleotide, labeled oligonucleotide, into a host cell with proper optimization. Examples of reagents that may be used to introduce nucleic acids into host cells include but are not limited to Lipofectamine, Lipofectamine 2000, Oligofectamine, TFX reagents, Fugene 6, DOTAP/DOPE, Metafectine, or Fecturin.
(§2) Cells were plated 24 hours prior to assay at 10-25,000 cells per well in 384 well plates in growth media (Ham's F-12 media plus FBS and glutamine). […] Incubation was for 1 hour, followed by plate loading onto the high throughput fluorescent plate reader (Hamamastu FDSS). […] The plates were read for 90 seconds.
(§3) Interaction of cell lines with test compounds was evaluated by measuring the membrane potential of GABAA, in response to test compounds using the following protocol.

[2] = target: T2, GABAA receptor α2β3γ2s (α2) (Homo sapiens, UniProt P18507+P28472+P47869, A343T); test: Membrane potential assay, CHO cell line expressing GABAA α2β3γ2s; type: cell-based; details: membrane potential assay, CHO α2β3γ2s cell line
T2 construct: Human GABAA receptor alpha 2 subunit amino acid; Human GABAA receptor beta 3 variant 1 subunit amino acid; Human GABAA receptor gamma 2 variant 1 (short) subunit amino acid; expressed in transfected cells
T2 sequence (P47869 29-451 A343T): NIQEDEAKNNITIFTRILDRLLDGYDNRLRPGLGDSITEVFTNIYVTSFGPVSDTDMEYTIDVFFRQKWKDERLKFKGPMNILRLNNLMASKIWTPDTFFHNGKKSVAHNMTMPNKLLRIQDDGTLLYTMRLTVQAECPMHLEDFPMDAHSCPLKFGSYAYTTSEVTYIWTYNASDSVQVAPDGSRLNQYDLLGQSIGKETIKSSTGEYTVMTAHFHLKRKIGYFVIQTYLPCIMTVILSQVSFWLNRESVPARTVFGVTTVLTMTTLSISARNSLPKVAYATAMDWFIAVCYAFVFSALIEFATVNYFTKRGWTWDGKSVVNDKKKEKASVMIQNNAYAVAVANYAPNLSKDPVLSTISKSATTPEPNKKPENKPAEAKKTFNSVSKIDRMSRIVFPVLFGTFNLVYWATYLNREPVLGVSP
T2 sequence (P28472 26-473, stated change not applied): as the sequence (P28472 26-473) above
T2 sequence (P18507 40-467 isoform P18507-1, stated change not applied): as the sequence (P18507 40-467 isoform P18507-1 limits assumed) above
Protocol: as §1, §2, §3

[3] = target: T3, GABAA receptor α3β3γ2s (α3) (Homo sapiens, UniProt P18507+P28472+P34903); test: Membrane potential assay, CHO cell line expressing GABAA α3β3γ2s; type: cell-based
T3 construct: Human GABAA receptor alpha 3 subunit amino acid; Human GABAA receptor beta 3 variant 1 subunit amino acid; Human GABAA receptor gamma 2 variant 1 (short) subunit amino acid; expressed in transfected cells
T3 sequence (P34903 29-492): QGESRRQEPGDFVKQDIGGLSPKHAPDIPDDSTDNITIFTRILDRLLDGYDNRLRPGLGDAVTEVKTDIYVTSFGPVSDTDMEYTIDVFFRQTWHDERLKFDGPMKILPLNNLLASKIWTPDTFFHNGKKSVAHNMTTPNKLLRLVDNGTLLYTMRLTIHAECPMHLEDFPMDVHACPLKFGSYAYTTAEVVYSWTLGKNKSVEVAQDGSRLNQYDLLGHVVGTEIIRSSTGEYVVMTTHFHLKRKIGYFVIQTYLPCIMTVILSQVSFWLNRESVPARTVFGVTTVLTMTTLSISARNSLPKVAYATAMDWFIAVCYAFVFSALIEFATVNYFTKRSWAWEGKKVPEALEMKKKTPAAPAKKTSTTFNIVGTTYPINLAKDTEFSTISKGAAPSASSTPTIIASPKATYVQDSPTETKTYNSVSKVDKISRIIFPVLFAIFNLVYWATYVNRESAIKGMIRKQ
T3 sequence (P28472 26-473): as the sequence (P28472 26-473) above
T3 sequence (P18507 40-467 isoform P18507-1 limits assumed): as the sequence (P18507 40-467 isoform P18507-1 limits assumed) above
Protocol: as §1, §2, §3

[4] = target: T4, GABAA receptor α5β3γ2s (α5) (Homo sapiens, UniProt P18507+P28472+P31644); test: Membrane potential assay, CHO cell line expressing GABAA α5β3γ2s; type: cell-based
T4 construct: Human GABAA receptor alpha 5 subunit amino acid; Human GABAA receptor beta 3 variant 1 subunit amino acid; Human GABAA receptor gamma 2 variant 1 (short) subunit amino acid; expressed in transfected cells
T4 sequence (P31644 32-462): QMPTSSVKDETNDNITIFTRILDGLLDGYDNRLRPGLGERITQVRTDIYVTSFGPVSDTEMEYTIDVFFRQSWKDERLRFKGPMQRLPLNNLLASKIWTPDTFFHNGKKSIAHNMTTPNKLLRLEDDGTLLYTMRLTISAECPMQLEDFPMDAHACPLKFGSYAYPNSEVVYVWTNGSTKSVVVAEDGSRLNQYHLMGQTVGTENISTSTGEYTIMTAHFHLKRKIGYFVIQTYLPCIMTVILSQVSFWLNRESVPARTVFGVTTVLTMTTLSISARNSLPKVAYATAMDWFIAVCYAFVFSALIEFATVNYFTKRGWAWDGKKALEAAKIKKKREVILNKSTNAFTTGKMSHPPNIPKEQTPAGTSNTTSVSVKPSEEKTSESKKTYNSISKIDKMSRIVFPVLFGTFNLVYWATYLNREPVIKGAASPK
T4 sequence (P28472 26-473): as the sequence (P28472 26-473) above
T4 sequence (P18507 40-467 isoform P18507-1 limits assumed): as the sequence (P18507 40-467 isoform P18507-1 limits assumed) above
Protocol: as §1, §2, §3

[5] = target: T5, GABAA receptor α2β3γ2s (α2) (Homo sapiens, UniProt P18507+P28472+P47869); test: Membrane potential assay, CHO cell line expressing GABAA α2β3γ2s; type: cell-based
T5 construct: Human GABAA receptor alpha 2 subunit amino acid; Human GABAA receptor beta 3 variant 1 subunit amino acid; Human GABAA receptor gamma 2 variant 1 (short) subunit amino acid; expressed in transfected cells
T5 sequence (P47869 29-451 A343T): as the sequence (P47869 29-451 A343T) above
T5 sequence (P28472 26-473, change not shown): as the sequence (P28472 26-473) above
T5 sequence (P18507 40-467 isoform P18507-1, change not shown): as the sequence (P18507 40-467 isoform P18507-1 limits assumed) above
Protocol: as §1, §2, §3

[6] = system: GABAA-meYFP-CHO cells (α1β3γ2s, α2β3γ2s, α3β3γ2s, α5β3γ2s); test: In-cell readout assay using halide-sensitive meYFP; type: cell-based, human; details: increasing concentrations of GABA ligand
Protocol: The response of GABAA (subunit combinations of α1β3γ2s (A1), α2β3γ2s (A2), α3β3γ2s (A3) and α5β3γ2s (A5)) expressing CHO cells of the invention to test compounds was evaluated using the following protocol for an in-cell readout assay.
Cells were plated 24 hours prior to assay at 10-25,000 cells per well in 384 well plates in growth media (Ham's F-12 media plus FBS and glutamine). […] The assay plates were then loaded on the FDSS (Hamamatsu Corporation). […] The plates were read for 90 seconds.

[7] = membrane potential assay, CHO α1β3γ2s cell line, read-out: EC50 Values α1
[8] = membrane potential assay, CHO α3β3γ2s cell line, read-out: EC50 Values α3
[9] = membrane potential assay, CHO α5β3γ2s cell line, read-out: EC50 Values α5

Compound	EC50 [1, 7] [nM]	EC50 [2] [nM]	EC50 [3, 8] [nM]	EC50 [4, 9] [nM]	EC50 [1] [nM]	EC50 [5] [nM]	EC50 [3] [nM]	EC50 [4] [nM]	EC50 Values α5 (result in words) ([4]; membrane potential assay, CHO α5β3γ2s cell line)	Quench of meYFP signal [6]
O=S(=O)(O)C1CCNCC1 [Piperidine-4-sulphonic acid]	13000	20000	8330	14200						
C[C@]12CC[C@@H](O)C[C@@H]1CC[C@@H]1[C@@H]2CC[C@]2(C)[C@@H](C(=O)CO)CC[C@@H]12 [3-alpha, 21-dihydroxy-5-alpha-pregnan-20-one]	382	123	80.2	17.3						
O=C(O)C1=CCNCC1 [Isoguvacine hydrochloride]	3570	3420	6780	1130						
Ivermectin	4260	767	798	687						
OCCN(CCO)c1nc(N2CCCCC2)c2nc(N(CCO)CCO)nc(N3CCCCC3)c2n1 [Dipyridamole]		3680	3690	1370						
CC(C)c1cccc(C(C)C)c1O [Propofol]					33400	42800	12900	2000		
CCOC(=O)c1cnc2c(cnn2CC)c1NN=C(C)C [Etazolate]	2540	790	569	281						
CC(C)(C)c1cc(C=C(C#N)C#N)cc(C(C)(C)C)c1O [Tyrphostin A9]	1800	880	5000	54000						
COc1cc(/C=C(\C#N)C(=O)c2ccc(O)c(O)c2)cc(I)c1O [I-OMe Tyrphostin 538]	3500	1500	2200						α5 Not active	
CN1C(=O)CCS(=O)(=O)C1c1ccc(Cl)cc1 (stereo not shown) [Chlormezanone]					1.74	5.42	7	14.1		
NCc1cc(=O)[nH]o1 [Muscimol]					4000	675	367	80		
O=C(Nc1ccc([N+](=O)[O-])cc1Cl)c1cc(Cl)ccc1O [Niclosamide]			550	690						
CCCCNc1c(C(=O)OCC)c(C)nc2c1cnn2CC [Tracazolate]	10600	8900	4300	762						
C[C@]12CC[C@@H](O)C[C@@H]1CC[C@@H]1[C@@H]2CC[C@]2(C)C(=O)CC[C@@H]12 [Androsterone]					1480	1520	1120	337		
CC(=O)[C@H]1CC[C@H]2[C@@H]3CC[C@H]4C[C@H](O)CC[C@]4(C)[C@H]3CC[C@]12C [5-alpha-Pregnan-3alpha-ol-20-one]	692		80			140		33.6		
NCCCC(=O)O [GABA, Gamma-aminobutyric acid]										increasing quench of meYFP signal
